Consider 20 compounds from ChEMBL document CHEMBL1129309, “Asymmetric syntheses, opioid receptor affinities, and antinociceptive effects of 8-amino-5,9-methanobenzocyclooctenes, a new class of structural analogues of the morphine alkaloids” (J Med Chem, 1996).

Some results are limits rather than exact numbers.

Assay [1] concerns Mus musculus. The experiment in a line: Percent activity against delta selective antinociception when given icv injection at a dose of 10 nmol 20 min before mouse tail flick test. The class given is functional. In general terms: Hot-plate and tail-flick tests time the reaction to a heat stimulus.
For assay [2], the system named is Mus musculus. Description: Percent activity against delta selective antinociception when given icv injection at a dose of 10 nmol 20 min before the mouse tail flick test along with 4 nmol ICI 174864. The class given is functional.
For assay [3], the target named is Kappa-type opioid receptor (Cavia porcellus, UniProt P41144). Description: Activity was evaluated by inhibition of the binding of 1 nM [3H]U-69593 at Opioid receptor kappa 1 binding site.
Assay [4] has as its target Mu-type opioid receptor (Bos taurus, UniProt P79350). Description: Activity was evaluated by inhibition of the binding of 0.8 nM [3H]- DAMGO at Opioid receptor mu 1 binding site.
The species named for assay [5] is Mus musculus. The experiment in a line: Antinociceptive action was evaluated by mouse tail flick assay at a dose of 100 nmol in the presence of 3 nmol morphine on 5 mice. The class given is functional.
The species entered for assay [6] is Mus musculus. The experiment in a line: Antinociceptive action was evaluated by mouse tail flick assay at a dose of 300 nmol on 5 mice. Format: functional.
The species named for assay [7] is Mus musculus. The experiment in a line: Antinociceptive action was evaluated by mouse tail flick assay at a dose of 100 nmol on 10 mice. The class given is functional.
The species entered for assay [8] is Mus musculus. The experiment in a line: Antinociceptive action was evaluated by mouse tail flick assay at a dose of 100 nmol in the presence of morphine on 9 mice. The class given is functional.
The species entered for assay [9] is Mus musculus. The experiment in a line: Antinociceptive action was evaluated by mouse tail flick assay at a dose of 3 nmol on 9 mice. The class given is functional.
Assay [10] is filed under the species Mus musculus. The experiment in a line: Antinociceptive action was evaluated by mouse tail flick assay at a dose of 10 nmol on 5 mice. The class given is functional.

Chain of Mu-type opioid receptor (P79350 whole entry): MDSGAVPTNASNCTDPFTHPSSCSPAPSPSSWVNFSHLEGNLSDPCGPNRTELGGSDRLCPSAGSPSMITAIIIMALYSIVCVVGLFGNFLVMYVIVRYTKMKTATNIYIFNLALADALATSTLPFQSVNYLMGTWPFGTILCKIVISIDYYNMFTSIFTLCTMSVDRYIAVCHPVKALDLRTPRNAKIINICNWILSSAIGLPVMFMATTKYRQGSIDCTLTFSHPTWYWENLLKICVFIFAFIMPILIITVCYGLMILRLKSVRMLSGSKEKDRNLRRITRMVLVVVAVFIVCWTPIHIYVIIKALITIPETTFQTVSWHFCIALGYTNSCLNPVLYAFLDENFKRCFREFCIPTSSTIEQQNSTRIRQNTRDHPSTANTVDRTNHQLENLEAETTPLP
Chain of Kappa-type opioid receptor (P41144 whole entry): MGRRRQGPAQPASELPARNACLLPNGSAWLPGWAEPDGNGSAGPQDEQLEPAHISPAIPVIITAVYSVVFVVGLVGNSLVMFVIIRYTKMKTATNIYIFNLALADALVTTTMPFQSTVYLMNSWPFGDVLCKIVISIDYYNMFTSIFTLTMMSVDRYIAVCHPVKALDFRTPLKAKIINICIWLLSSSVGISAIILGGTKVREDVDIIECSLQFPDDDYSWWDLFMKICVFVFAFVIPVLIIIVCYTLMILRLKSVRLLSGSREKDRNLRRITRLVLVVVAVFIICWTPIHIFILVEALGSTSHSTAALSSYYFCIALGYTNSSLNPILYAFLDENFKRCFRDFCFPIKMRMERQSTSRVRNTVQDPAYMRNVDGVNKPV

`CC1(C)SSC(C)(C)[C@@H](NC(=O)[C@@H](N)Cc2ccc(O)cc2)C(=O)NCC(=O)N[C@@H](Cc2ccccc2)C(=O)N[C@H]1C(=O)O`: the Activity in [1] stood at 55%; in [2], 5%.
Regarding `CNCC12Cc3ccc(O)cc3C(C)(CCC1N)C2` (stereo unspecified), the values for the Ki in [3] and in [4] were 51.6 nM and 91.6 nM, respectively.
Regarding `COC[C@]12Cc3ccc(O)cc3[C@](C)(CCc3nnnn31)C2`, the Ki in assay [3] is greater than 10000 nM.
`CN1CNC2CCC3(C)CC2(Cc2ccc(O)cc23)C1` (stereo unspecified): the Ki in assay [3] is 17.2 nM; in assay [4] it was 27.7 nM.
Compound `COCC12Cc3ccc(O)cc3[C@](C)(CCCN1C)C2` (single isomer, unassigned) yielded a Ki in assay [3] of 795 nM.
Consider `CN(C)C1CCC2(C)CC1(CO)Cc1ccc(O)cc12` (single isomer, unassigned; (+)), for which the Ki in assay [3] was found to be 2900 nM; in assay [4], 830 nM.
Regarding `CN(C)C1CCC2(C)CC1(C)Cc1ccc(O)cc12` (single isomer, unassigned; (+)), the Ki in [3] is 5960 nM. This lies in the single-digit micromolar range.
For `CN1CC23Cc4ccc(O)cc4C(C)(CCC12)C3` (single isomer, unassigned; (+)), the Ki in assay [3] came out at 215 nM; in assay [4], 179 nM.
In the case of `COCC12Cc3ccc(O)cc3C(C)(CCC1N(C)C)C2` (single isomer, unassigned; (+)), the values for the Ki in assay [3] and in assay [4] were 123 nM and 25.2 nM, respectively.
Regarding `CNC1CCC2(C)CC1(CO)Cc1ccc(O)cc12` (single isomer, unassigned; (+)), the Ki in assay [3] was 440 nM; in assay [4] it was 42 nM.
For `CN(C)C1CCC2(C)CC1(C)Cc1ccc(O)cc12` (single isomer, unassigned; (-)) the same measures were 409 nM and 297 nM.
The corresponding values for `CC12CCC(N)C(CO)(Cc3ccc(O)cc31)C2` (single isomer, unassigned; (-)) are 109 nM and 40.6 nM.
As for `COCC12Cc3ccc(O)cc3C(C)(CCC1N(C)C)C2` (single isomer, unassigned; (-)), the results for the Ki in assay [3] and in assay [4] were 60.9 nM and 19.3 nM, respectively.
For `CNC1CCC2(C)CC1(CO)Cc1ccc(O)cc12` (single isomer, unassigned; (-)) the same measures were 650 nM and 380 nM.
On to `COCC12Cc3ccc(O)cc3C(C)(CCC1N)C2` (stereo in doubt; (+)3a), for which the Antinociception in [5] is given as 58%; in assay [6] it was 13%. Besides, the Ki in [3] worked out at 80.8 nM; in assay [4], 1.99 nM.
Consider `CC12CCC(N)C(CO)(Cc3ccc(O)cc31)C2` (stereo in doubt; (+)-3b), for which the Ki in assay [3] was greater than 10000 nM; in [4], 41.2 nM.
For `COCC12Cc3ccc(O)cc3C(C)(CCC1N)C2` (stereo in doubt; (-)-3a), the Antinociception in assay [7] came to 37%. Further, the results for the Ki in [3] and in assay [4] were 53.1 nM and 2.29 nM, respectively.
Take `CN(C)C1CCC2(C)CC1(CO)Cc1ccc(O)cc12` (stereo in doubt; (-)-3c): the Ki came to 3800 nM in [3] and 870 nM in assay [4].
On to `COCC12Cc3ccc(O)cc3C(C)(CCC1N)C2` (stereo in doubt; (dl)-22), for which the Antinociception in assay [8] is listed as 74%. Further, the Ki worked out at 6.62 nM in assay [3] and 1.99 nM in [4].
As for `CN1CC[C@]23c4c5ccc(O)c4O[C@H]2[C@@H](O)C=C[C@H]3[C@H]1C5` [MORPHINE], the results for the Antinociception in assay [9] and in [10] were 65% and 100%, respectively.

The Ki is the dissociation constant of the complex between target and ligand, obtained from inhibition or displacement. Low readings indicate a stronger hold on the target, high ones a looser hold on the target.
